Data on two molecules can be found in ChEMBL document CHEMBL6096634, “Exploration of novel 20S proteasome activators featuring anthraquinone structures and their application in hypoxic cardiomyocyte protection” (Bioorg Med Chem, 2024).

The target in test [1] is 20S proteasome. The test can be described thus: Activation of 20s proteosome (unknown origin) mediated chymotrypsin-like activity. The class given is protein-complex assay, Homo sapiens.
For test [2], the target named is T1, 20S proteasome (Homo sapiens) (UniProt P49721+P20618+P28074+P28062+P28065+P28072+P25786+P25787+P25788+P25789+P28066+P60900+O14818+Q8TAA3+P40306+A5LHX3+P49720+P28070+Q99436). The test can be described thus: Activation of 20s proteosome (unknown origin) mediated chymotrypsin-like activity assessed as fold maximum enhancement. The class given is protein-complex assay. The following applies: filed as activator.

Test [3] deals with H9c2. The test can be described thus: Protection against hypoxia-induced cell damage in rat H9c2 cells at 0.05 uM incubated for 14 hrs by MTT assay. Type of test: functional, cell-based.
The test system of test [4] is H9c2. The test can be described thus: Upregulation of Ki-67 expression in rat H9c2 cells at 0.1 uM under normoxic condition by qRT-PCR analysis. Type of test: functional, cell-based.
Test [5] concerns H9c2. The test can be described thus: Anti-apoptotic activity in rat H9c2 cells assessed as late apoptotic cells at 0.1 uM preincubated for 24 hrs followed by incubation under hypoxic condition for 18 hrs by Annexin V-FITC and PI staining based flow cytometry analysis (reference value: 8.60%). The class given is functional. The note with it: time 42 hrs.
Test [6] has as its system H9c2. The test can be described thus: Effect on PCNA expression in rat H9c2 cells at 0.1 uM under normoxic condition by qRT-PCR analysis. Type of test: functional, cell-based.
Test [7] relates to H9c2. The test can be described thus: Effect on PCNA expression in rat H9c2 cells at 0.1 uM under hypoxic condition by qRT-PCR analysis. Type of test: functional, cell-based.
The test system of test [8] is H9c2. The test can be described thus: Anti-apoptotic activity in rat H9c2 cells at 0.1 uM preincubated for 24 hrs followed by incubation under normoxic condition for 18 hrs by Annexin V-FITC and PI staining based flow cytometry analysis. The note with it: time 42.0 hrs. The class given is functional, cell-based.
The test system of test [9] is H9c2. The test can be described thus: Anti-apoptotic activity in rat H9c2 cells at 0.1 uM under hypoxic condition by TUNEL staining based analysis. The class given is functional, cell-based.
Test [10] relates to H9c2. The test can be described thus: Upregulation of Ki-67 expression in rat H9c2 cells at 0.1 uM under hypoxic condition by qRT-PCR analysis. Type of test: functional, cell-based.
The subject of test [11] is H9c2. The test can be described thus: Anti-apoptotic activity in rat H9c2 cells at 0.1 uM under normoxic condition by TUNEL staining based analysis. The class given is functional, cell-based.
Test [12] deals with H9c2. The test can be described thus: Anti-apoptotic activity in rat H9c2 cells assessed as late apoptotic cells at 0.1 uM preincubated for 24 hrs followed by incubation under normoxic condition for 18 hrs by Annexin V-FITC and PI staining based flow cytometry analysis (reference value: 3.68%). The class given is functional. The note with it: time 42 hrs.
Test [13] concerns the target T1, 20S proteasome (Homo sapiens). The test can be described thus: Activation of human erythrocyte-derived 20s proteosome using T-L as peptide substrate by fluorescence based analysis. The class given is cell-based. The following applies: filed as activator.
Test [14] relates to H9c2. The test can be described thus: Anti-apoptotic activity in rat H9c2 cells assessed as early apoptotic cells at 0.1 uM preincubated for 24 hrs followed by incubation under normoxic condition for 18 hrs by Annexin V-FITC and PI staining based flow cytometry analysis (reference value: 0.75%). Type of test: functional. The following applies: time 42 hrs.
For test [15], the system named is H9c2. The test can be described thus: Anti-apoptotic activity in rat H9c2 cells assessed as early apoptotic cells at 0.1 uM preincubated for 24 hrs followed by incubation under hypoxic condition for 18 hrs by Annexin V-FITC and PI staining based flow cytometry analysis (reference value: 4.06%). The class given is functional. The note with it: time 42 hrs.
For test [16], the target named is T1, 20S proteasome (Homo sapiens). The test can be described thus: Activation of human erythrocyte-derived 20s proteosome using CT-L as peptide substrate at 10 uM by fluorescence based analysis relative to control. Type of test: cell-based. The following applies: filed as activator.
Test [17] concerns H9c2. The test can be described thus: Anti-apoptotic activity in rat H9c2 cells assessed as viable cells at 0.1 uM preincubated for 24 hrs followed by incubation under hypoxic condition for 18 hrs by Annexin V-FITC and PI staining based flow cytometry analysis (reference value: 85.85%). The note with it: time 42 hrs, read-out: Activity. The class given is functional.
In test [18] the test system is H9c2. The test can be described thus: Anti-apoptotic activity in rat H9c2 cells assessed as necrotic cells at 0.1 uM preincubated for 24 hrs followed by incubation under hypoxic condition for 18 hrs by Annexin V-FITC and PI staining based flow cytometry analysis (reference value: 0.50%). The class given is functional. The note with it: time 42 hrs.
Test [19] addresses 20S proteasome. The test can be described thus: (§1) Activation of human erythrocyte-derived 20s proteosome using CT-L as peptide substrate by fluorescence based analysis. Type of test: cell-based.
Test [20] deals with T1, 20S proteasome (Homo sapiens). The description is as §1. Type of test: cell-based. The note with it: filed as activator.
Test [21] relates to H9c2. The test can be described thus: Anti-apoptotic activity in rat H9c2 cells assessed as viable cells at 0.1 uM preincubated for 24 hrs followed by incubation under normoxic condition for 18 hrs by Annexin V-FITC and PI staining based flow cytometry analysis (reference value: 94.7%). Type of test: functional. The note with it: time 42 hrs, read-out: Activity.
Test [22] concerns H9c2. The test can be described thus: Anti-apoptotic activity in rat H9c2 cells at 0.1 uM preincubated for 24 hrs followed by incubation under hypoxic condition for 18 hrs by Annexin V-FITC and PI staining based flow cytometry analysis. The class given is functional, cell-based. The following applies: time 42.0 hrs.
The subject of test [23] is H9c2. The test can be described thus: Anti-apoptotic activity in rat H9c2 cells assessed as necrotic cells at 0.1 uM preincubated for 24 hrs followed by incubation under normoxic condition for 18 hrs by Annexin V-FITC and PI staining based flow cytometry analysis (reference value: 0.60%). The class given is functional. The following applies: time 42 hrs.
In a further test the test system is HEK293. The test can be described thus: Inhibition of […]-induced ER stress in HEK293 cells harbouring XBP1-delta DBD-Luc cells assessed as decrease in luciferase activity incubated for 8 hrs by […]. The class given is functional, cell-based. The note with it: Homo sapiens, dose 10-20 µM.
The subject of test [24] is H9c2. The test can be described thus: Protection against hypoxia-induced cell damage in rat H9c2 cells at 0.1 uM incubated for 14 hrs by MTT assay. The class given is functional, cell-based.

Activity calls are given as the source filed them. No cut-off for these calls is given here.

Consider `CC1(C)CC[C@]2(C(=O)O)CC[C@]3(C)C(=CC[C@@H]4[C@@]5(C)CC[C@H](O)C(C)(C)[C@@H]5CC[C@]43C)[C@@H]2C1` [OLEANOLIC_ACID], for which the concentration giving a half-maximal response (EC50) at 20S proteasome [1] is 2.7 µM. In addition, the fold change (FC) in [2] was 8.
Regarding `Cc1ccccc1Nc1cc(NCC(C)C)c2noc3c2c1C(=O)c1ccccc1-3`, the result with H9c2 [3], in the test on H9c2 [4], with H9c2 [9], with H9c2 [10], with H9c2 [22] and with H9c2 [24] was Active. Further, the Activity with H9c2 [5] is 4.73%; with H9c2 [12] it was 3.53%; in the test with H9c2 [14], 0.65%; in the test on H9c2 [15], 1.18%; in [16] it was 486%; in the test on H9c2 [18], 1.34%. In addition, in the test on H9c2 [23], the Activity is reported as 1.3%. For the same molecule, the result in the test on H9c2 [6], in the test with H9c2 [7], in the test on H9c2 [8] and with H9c2 [11] was inactive. Also, the fold change (FC) in test [13] was found to be 6.38. For the same molecule, the viability at 0.1 µM worked out at 92.8% with H9c2 [17] and 94.6% in the test on H9c2 [21]. For the same molecule, the EC50 at 20S proteasome [19] stood at 3.38 µM. The EC200 in test [20] stood at 0.67 µM. In the test with HEK293, the inhibition result was “Active”.
